Here are results for 1 molecule from BindingDB's records for doi:10.1016/s0960-894x(00)00248-1 (University of Munich, 2000).

Broadly, the IC50 is the concentration that gives 50% inhibition.

The target of this experiment is Beta-lactamase TEM (Escherichia coli, UniProt P62593). Nature of the experiment: ChEBML_39213. As for the experimental part: Beta-Lactamase inhibition activity after 15 min of pre-incubation with the enzyme isolated from Escherichia coli 205 TEM
Beta-lactamase TEM, sequence (P62593 whole entry): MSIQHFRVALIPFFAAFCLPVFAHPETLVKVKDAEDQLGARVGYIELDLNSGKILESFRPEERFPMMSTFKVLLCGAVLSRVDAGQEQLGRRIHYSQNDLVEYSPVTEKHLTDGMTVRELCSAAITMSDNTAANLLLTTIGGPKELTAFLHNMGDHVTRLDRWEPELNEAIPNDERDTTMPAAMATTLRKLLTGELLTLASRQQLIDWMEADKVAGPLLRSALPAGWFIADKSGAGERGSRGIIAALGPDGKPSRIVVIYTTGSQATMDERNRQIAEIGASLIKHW

Take `COC1=C(C(=O)O)N2C(=O)[C@H]([C@@H](C)O)[C@H]2C1` [Potassium; (5R,6S)-6-((R)-1-hydroxy-ethyl)-3-methoxy-7-oxo-1-aza-bicyclo[3.2.0]hept-2-ene-2-carboxylate]: the midpoint of inhibition, the IC50, lay at 340 µM.
